Results reported in PMC12412453 (Toxicology, 2021).
Several values for one entry are separate records, joined by “and”; a condition that tells them apart may be missing. Equal entries are not always repeated. Where two headings read alike, the source gives them in different places.

Columns and labels:
[1] = tested on: primary human hepatocytes (PHHs); details: cited from earlier work
[2] = cited from earlier work
[3] = tested on: primary macaque hepatocytes (PMHs); assay: CometChip assay; details: for BMDU/BMDL / DNA damage (ratio of %DNA in tail at highest concentration to vehicle control) / LEC (lowest effective concentration) / BMDL50–BMDU50 / Potency ranking: PMH; for BMD50: PMH CometChip data, PROAST exponential model; for DNA damage (ratio of %DNA in tail at highest concentration to vehicle control) / LEC (lowest effective concentration): 24-h treatment; for LEC (lowest effective concentration): lowest concentration positive in comet assay; for BMDL50–BMDU50: 90 % confidence interval of BMD50; for Potency ranking: rank by BMD50 among nine positive compounds; for fold increase in % tail DNA (DNA damage) compared to the vehicle control: PMHs, highest acceptable concentration, range given for four compounds together
[4] = tested on: primary macaque hepatocytes (PMHs); assay: Cytotoxicity by ATP assay; details: for Max. con.: maximum concentration
[5] = reported findings; ref References column of Table 1; cited from earlier work
[6] = tested on: primary human hepatocytes (PHHs); details: cited from earlier work; remark: listed apart in the source
cynomolgus monkeys = details: dosed cynomolgus monkeys; ref Thorgeirsson et al., 1995; cited from earlier work
[7] = reported findings; ref References column of Table 1; cited from earlier work; remark: listed apart in the source
[8] = tested on: primary macaque hepatocytes (PMHs); details: rhesus macaque, 24 h
[9] = Cytotoxicity by ATP assay; details: rhesus macaque, primary macaque hepatocytes (PMHs)
[10] = tested on: primary macaque hepatocytes (PMHs); details: rhesus macaque, 24 h; remark: listed apart in the source
[11] = PHH CometChip data reanalyzed using PROAST, ref Seo et al., 2020
[12] = PHH, 90 % confidence interval of BMD50, ref Seo et al., 2020
[13] = PHH, rank by BMD50 among nine positive compounds, ref Seo et al., 2020
[14] = PHH, lowest concentration positive in comet assay, ref Seo et al., 2020
[15] = reported findings, ref References column of Table 1
[16] = PHH, ATP assay, 24-h treatment, ref Seo et al., 2020
[17] = PHH, maximum concentration, ref Seo et al., 2020

Compound	BMD50 [1, 11] [µM]	BMDL50–BMDU50 [1, 12] [µM]	Potency ranking [1, 13]	DNA damage (ratio of %DNA in tail at highest concentration to vehicle control) ([1]; PHH, ref Seo et al., 2020)	Genotoxicity assay findings in vivo [2, 15]	Max. con. ([4]; PMH, 24-h treatment)	Cytotoxicity ([4]; PMH, ATP assay, 24-h treatment)	Genotoxicity assay findings in vitro [5]	Cytotoxicity [6, 16]	Max. con. [6, 17]	Carcinogenicity [7]	further results
Cc1ccc(N)cc1N [2,4-DAT, 2,4-diaminotoluene]	880.6	489 to 1580	9	++ (2 < ratio ≤ 5)	(+) for UDS and comet; (+/−) for MN in BM	8000 µM	+ (11–30 %)	(+) for MLA, CA, MN, comet, and UDS; (−) for comet in HepaRG and Hprt	+ (11–30 %)	8000 µM	–	LEC (lowest effective concentration) [1, 14]: 1414 µM; BMDU/BMDL ([1]; PHH, ref Seo et al., 2020): 3.2; BMD50 fold higher in PMHs than in PHHs (lower in PHHs) ([3]; CometChip BMD50, PMH vs PHH): 3.2 fold; BMDU/BMDL [3]: 2.6; BMD50 [3]: 2831 µM; DNA damage (ratio of %DNA in tail at highest concentration to vehicle control) [3]: ++ (2 < ratio ≤ 5); LEC (lowest effective concentration) [3]: 8000 µM; BMDL50–BMDU50 [3]: 1790 to 4660 µM; Potency ranking [3]: 9
Cn1c(N)nc2ncc(-c3ccccc3)cc21 [PhIP, 2-amino-1-me-thyl-6-phenylimidazo-[4,5-b]-pyridine]	–	–	–	–	–	–	–	–	–	–	–	DNA adducts in several organs, particularly liver, kidney, and heart (cynomolgus monkeys): high levels of DNA adducts
CCc1cc(C(N)=S)ccn1 [Ethionamide]	–	–	–	− (The ratio ≤ 1.5-fold and p ≥ 0.05)	(−) for comet	2000 µM	+ (11–30 %)	–	+ (11–30 %)	2000 µM	(−) in rats and mice	–
Oc1cccc(O)c1 [Resorcinol]	–	–	–	− (The ratio ≤ 1.5-fold and p ≥ 0.05)	–	1000 µM	++ (31–50 %)	–	++ (31–50 %)	2000 µM	(−) in rats and mice	–
Cc1c2ccccc2c(C)c2c1ccc1ccccc12 [DMBA, 7,12-dimethylbenzanthracene]	15.1	8.5 to 25.8	6	++ (2 < ratio ≤ 5)	(+) for MN and Pig-a in blood, comet in liver, CA in BM, gene mutation	500 µM	+ (11–30 %)	(+) for MLA, CA, MN, comet, and UDS	− (cytotoxicity of 0–10 %)	250 µM	(+) for mammary liver, skin tumor, etc.	LEC (lowest effective concentration) [1, 14]: 62.5 µM; BMDU/BMDL ([1]; PHH, ref Seo et al., 2020): 3.0; BMD50 fold higher in PHHs than in PMHs (lower in PMHs) ([3]; CometChip BMD50, PHH vs PMH): 3.8 fold and 3.75 fold; BMDU/BMDL [3]: 2.4; BMD50 [3]: 4.0 µM; DNA damage (ratio of %DNA in tail at highest concentration to vehicle control) [3]: +++ (the ratio > 5); LEC (lowest effective concentration) [3]: 31.25 µM; BMDL50–BMDU50 [3]: 2.6 to 6.1 µM; Potency ranking [3]: 3; fold increase in % tail DNA (DNA damage) compared to the vehicle control [3]: 6.1–8.1 fold; LEC fold higher in PHHs than in PMHs ([3]; comet assay LEC, PHH vs PMH): 2 fold; cytotoxic effects (in words) ([4]; PMHs, ATP assay, 24-h exposure): cytotoxic effects over the same range of concentrations, but only in PMHs
O=[N+]([O-])c1cc[n+]([O-])c2ccccc12 [4-NQO, 4-nitroquinoline 1-oxide]	0.3	0.1 to 0.6	1	–	–	7.5 µM	+ (11–30 %)	(+) for CA, MLA, Pig-a, comet	+ (11–30 %)	5 µM	–	–
c1ccc2c(c1)cc1ccc3cccc4ccc2c1c34 [B[a]P, benzo[a]pyrene]	9.2	5.2 to 16.3	5	–	(+) for comet, MN, Pig-a and gene mutations	–	+ (11–30 %)	(+) for MLA, CA, MN, Pig-a, comet, Hprt, and UDS	+ (11–30 %)	100 µM	–	Max. con. [8]: 100 µM
COc1cc(/C=C/C(=O)CC(=O)/C=C/c2ccc(O)c(OC)c2)ccc1O [Curcumin]	–	–	–	–	–	40 µM	+ (11–30 %)	–	+ (11–30 %)	40 µM	–	–
CCCC(O)C(CC)CO (centres unmarked) [2-Ethyl-1,3-hexanediol]	–	–	–	− (The ratio ≤ 1.5-fold and p ≥ 0.05)	–	10,000 μM	+ (11–30 %)	(+) for CA + S9; (−) for MLA, Hprt, MN, and SCE	+ (11–30 %)	10,000 μM	(−) in dermal studies	–
COc1cc2c(c(OC)c1OC)-c1ccc(OC)c(=O)cc1[C@@H](NC(C)=O)CC2 [Colchicine]	–	–	–	–	–	–	+ (11–30 %)	–	+ (11–30 %)	–	–	–
[Cl][Cd][Cl] [CdCl2, cadmium chloride]	0.9	0.5 to 1.6	2	+ (1.5 < ratio ≤ 2, and p < 0.05)	(+) for CA and MN, comet in liver	4 µM	++ (31–50 %)	(+) for MN, CA, MLA, Hprt, comet	+ (11–30 %)	4 µM	(+) for lung, prostate, etc.	LEC (lowest effective concentration) [1, 14]: 1 µM; BMDU/BMDL ([1]; PHH, ref Seo et al., 2020): 3.2; BMDU/BMDL [3]: 2.3; BMD50 [3]: 0.37 µM and 0.4 µM; DNA damage (ratio of %DNA in tail at highest concentration to vehicle control) [3]: +++ (the ratio > 5); LEC (lowest effective concentration) [3]: 2 µM; BMDL50–BMDU50 [3]: 0.2 to 0.5 µM; Potency ranking [3]: 1; fold increase in % tail DNA (DNA damage) compared to the vehicle control [3]: 6.1–8.1 fold; Cytotoxicity ([4]; PMHs, 4 μM, 24-h exposure): 43%; Cytotoxicity ([6]; PHHs, 4 μM, ref Seo et al., 2020): 25%
Oc1ccc(O)cc1 [HQ, hydroquinone]	–	–	–	− (The ratio ≤ 1.5-fold and p ≥ 0.05)	(+) for CA, MN; (−) for comet and TG in liver and stomach	200 µM	+ (11–30 %)	(+) for MLA, MN, CA, comet	++ (31–50 %)	200 µM	(+) for liver and kidney adenoma	viability at 24 h, 200 µM [9]: 78 to 81%; cell viability ([6]; PHHs, 200 μM, range given for cisplatin and HQ together, ref Seo et al., 2020): 55–63%
Cn1c(N)nc2c3cccnc3ccc21 [IQ, 2-amino-3-methylimidazo-[4,5-f]-quinoline]	–	–	–	–	–	–	–	–	–	–	–	DNA adducts in several organs, particularly liver, kidney, and heart (cynomolgus monkeys): high levels of DNA adducts
Nc1ccccc1C(=O)O [o-Anthranilic acid]	–	–	–	− (The ratio ≤ 1.5-fold and p ≥ 0.05)	(−) for Pig-a, MN, CA, comet	5000 µM	++ (31–50 %)	–	− (cytotoxicity of 0–10 %)	5000 µM	–	DNA damage (ratio of %DNA in tail at highest concentration to vehicle control) [3]: − (The ratio ≤ 1.5-fold and p ≥ 0.05); cytotoxic effects (in words) ([4]; PMHs, ATP assay, 24-h exposure): cytotoxic effects over the same range of concentrations, but only in PMHs
COS(C)(=O)=O [MMS, methyl methanesulfonate]	–	–	–	–	–	–	–	–	–	–	–	BMD50 [1]: 1.0 µM; BMDL50–BMDU50 [1]: 0.5 to 1.9 µM; BMDU/BMDL [1]: 3.5; LEC (lowest effective concentration) [1]: 62.5 µM; Potency ranking [1]: 3; Genotoxicity assay findings in vivo ([2]; in vivo): (+) for CA, MN, UDS, Pig-a, TG, comet; Max. con. [8]: 500 µM; Max. con. [6]: 500 µM; BMDL50–BMDU50 [10]: 14.2 to 33.7 µM; BMDU/BMDL [10]: 2.4; LEC (lowest effective concentration) [10]: 125 µM; Potency ranking [10]: 6
Cc1cnc2ccc3c(nc(N)n3C)c2n1 [8-MeIQx, 2-amino-3,8-dimethylimidazo[4,5-f]-quinoxaline]	–	–	–	–	–	–	–	–	–	–	–	DNA adducts in several organs, particularly liver, kidney, and heart (cynomolgus monkeys): high levels of DNA adducts
